Structures are written as SMILES.

Experimental findings from ChEMBL document CHEMBL1147032, “Design, synthesis, and biological evaluation of substituted 2-alkylthio-1,5-diarylimidazoles as selective COX-2 inhibitors” (Bioorg Med Chem, 2007) are described below.

Assay [1] concerns the target T1, Prostaglandin G/H synthase 2 (Mus musculus, UniProt Q05769).
T1 sequence (Q05769 whole entry): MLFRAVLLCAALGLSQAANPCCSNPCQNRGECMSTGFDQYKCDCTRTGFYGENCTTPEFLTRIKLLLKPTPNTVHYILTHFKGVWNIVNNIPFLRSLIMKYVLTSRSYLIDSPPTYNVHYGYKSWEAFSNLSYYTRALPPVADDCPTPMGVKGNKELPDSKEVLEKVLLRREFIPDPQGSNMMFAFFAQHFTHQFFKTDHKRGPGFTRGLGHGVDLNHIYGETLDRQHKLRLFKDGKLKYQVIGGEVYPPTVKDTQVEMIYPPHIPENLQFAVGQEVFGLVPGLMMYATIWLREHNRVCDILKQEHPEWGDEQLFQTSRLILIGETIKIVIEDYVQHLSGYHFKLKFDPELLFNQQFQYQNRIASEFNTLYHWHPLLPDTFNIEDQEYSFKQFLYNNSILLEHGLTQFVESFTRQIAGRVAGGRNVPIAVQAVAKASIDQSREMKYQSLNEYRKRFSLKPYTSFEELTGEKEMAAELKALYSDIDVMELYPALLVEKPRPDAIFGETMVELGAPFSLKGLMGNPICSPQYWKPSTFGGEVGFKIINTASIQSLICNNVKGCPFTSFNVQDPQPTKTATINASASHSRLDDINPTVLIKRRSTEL
Description: Inhibition of mouse COX2.

In assay [2] the target is T2, Prostaglandin G/H synthase 1 (Ovis aries, UniProt P05979).
T2 sequence (P05979 whole entry): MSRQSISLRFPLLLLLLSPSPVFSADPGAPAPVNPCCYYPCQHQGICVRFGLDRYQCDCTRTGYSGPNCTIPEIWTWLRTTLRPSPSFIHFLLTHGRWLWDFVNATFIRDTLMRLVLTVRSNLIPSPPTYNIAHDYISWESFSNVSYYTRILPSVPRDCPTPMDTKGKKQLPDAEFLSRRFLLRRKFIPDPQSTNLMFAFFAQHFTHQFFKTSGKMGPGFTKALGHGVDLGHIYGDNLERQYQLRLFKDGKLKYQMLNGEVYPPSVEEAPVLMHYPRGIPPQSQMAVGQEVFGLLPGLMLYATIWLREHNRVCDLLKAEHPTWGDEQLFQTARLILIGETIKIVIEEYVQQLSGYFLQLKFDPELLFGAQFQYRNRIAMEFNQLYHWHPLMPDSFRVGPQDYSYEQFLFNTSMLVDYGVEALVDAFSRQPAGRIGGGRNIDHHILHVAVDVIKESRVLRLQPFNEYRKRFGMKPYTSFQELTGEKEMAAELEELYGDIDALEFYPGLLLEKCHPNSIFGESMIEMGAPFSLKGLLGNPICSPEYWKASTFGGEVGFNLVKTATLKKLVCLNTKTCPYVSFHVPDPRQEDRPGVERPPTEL
Description: Inhibition of ovine COX1.

The test system of assay [3] is Rattus norvegicus. Description: Antiinflammatory activity against carrageenan-induced paw edema in Sprague-Dawley rat at 50 mg/kg, po after 3 hrs. The assay is classed as functional. A general note: The carrageenan paw model is a standard test of acute inflammation.
Assay [4] relates to Rattus norvegicus. Description: Antiinflammatory activity against carrageenan-induced paw edema in Sprague-Dawley rat at 50 mg/kg, po after 5 hrs. The format is functional.
A short description of assay [5]: Inhibition of ovine COX1 at 0.5 uM.
Assay [6] in a line: Inhibition of ovine COX1 at 25 uM.

Usually IC50 stands for the concentration that inhibits the measured activity by half. A high value points to weaker potency in that assay. Usually inhibition in vivo stands for the percentage by which the read-out fell short of the control. Low readings indicate little suppression, high ones strong suppression. Take `CCSc1ncc(-c2ccc(S(C)(=O)=O)cc2)n1-c1ccc(Cl)cc1`: the IC50 in assay [1] is over 25000 nM; in assay [2], 820 nM. Further, the inhibition in vivo at 50 mg/kg in assay [3] amounted to 53.8%; in assay [4], 52.7%.

Take `CCSc1ncc(-c2ccc(S(C)(=O)=O)cc2)n1-c1ccc(OC)cc1`: the 50% inhibitory concentration (IC50) in assay [1] is over 25000 nM; in assay [2] it was 510 nM.

For `CCSc1ncc(-c2ccc(S(C)(=O)=O)cc2)n1-c1ccccc1`, the IC50 in assay [1] was over 25000 nM; in assay [2], 580 nM. Moreover, the figures for the inhibition in vivo at 50 mg/kg in assay [3] and in assay [4] were 89.7% and 51.1%, respectively.

As to `CSc1ncc(-c2ccc(S(C)(=O)=O)cc2)n1-c1ccc(Cl)cc1`, the IC50 is over 25000 nM in assay [1] and 470 nM in assay [2]. Also, the inhibition in vivo at 50 mg/kg was 59.5% in assay [3] and 42.7% in assay [4].

`CSc1ncc(-c2ccc(S(C)(=O)=O)cc2)n1-c1ccccc1`: the half-maximal inhibitory concentration (IC50) is over 25000 nM in assay [1] and 580 nM in assay [2]. The results for the inhibition in vivo at 50 mg/kg in assay [3] and in assay [4] were 74.1% and 61.6%, respectively.

Consider `COc1ccc(-n2c(-c3ccc(S(C)(=O)=O)cc3)cnc2SC)cc1`, for which the concentration for half-maximal inhibition (IC50) in assay [1] is over 25000 nM; in assay [2], 2610 nM. The inhibition in vivo at 50 mg/kg was 41.3% in assay [3] and 34.3% in assay [4].

`CSc1ncc(-c2ccc(S(C)(=O)=O)cc2)n1-c1ccc(Br)cc1`: the results for the IC50 in assay [1] and in assay [2] were over 25000 nM and 430 nM, respectively. Also, the inhibition in vivo at 50 mg/kg is 90.7% in assay [3] and 88% in assay [4].

As to `CCSc1ncc(-c2ccc(S(C)(=O)=O)cc2)n1-c1ccc(Br)cc1`, the half-maximal inhibitory concentration (IC50) in assay [1] was over 25000 nM; in assay [2], over 4000 nM. Moreover, the inhibition in vivo at 50 mg/kg in assay [3] was 66%; in assay [4] it was 59%.

For orientation: inhibition means the share of the control response that was lost under treatment. As to `CCSc1ncc(-c2ccc(S(C)(=O)=O)cc2)n1-c1ccc(F)cc1`, the IC50 in assay [1] is over 25000 nM; in assay [2], 500 nM. In addition, the inhibition in vivo at 50 mg/kg was 65% in assay [3] and 43% in assay [4]. Moreover, the results for the inhibition in assay [5] and in assay [6] were 21% and 29%, respectively.

For the compound `Cc1ccc(-c2cc(C(F)(F)F)nn2-c2ccc(S(N)(=O)=O)cc2)cc1` [CELECOXIB], the inhibition in vivo at 50 mg/kg in assay [3] stood at 70.5%; in assay [4], 50%.

Regarding `CSc1ncc(-c2ccc(S(C)(=O)=O)cc2)n1-c1ccc(F)cc1`, the IC50 in assay [1] is over 25000 nM; in assay [2], 520 nM. Further, the figures for the inhibition in vivo at 50 mg/kg in assay [3] and in assay [4] were 40% and 18.7%, respectively.
